Assay results reported in paper PMC12445503 (Channels, 2025).

Experiments:
Format in all cases: cell-based
[1] = biological target: T1, Cav1.3 (Homo sapiens, UniProt Q01668); assay: whole-cell patch-clamp concentration-response, […] Ca2+, HP -89 mV, […] Hz
T1 construct: gene CACNA1D; human Cav1.3S (C-terminal short splice variant, exon 8b) α1 stably expressed in tsA-201 cells; with auxiliary β3 (rat) and α2δ1 (rabbit) subunits

[2] = biological target: T2, Cav1.2 (Homo sapiens, UniProt Q13936); assay: as above
T2 construct: gene CACNA1C; human Cav1.2 α1 stably expressed in tsA-201 cells; with auxiliary β3 (rat) and α2δ1 (rabbit) subunits

[3] = biological target: T3, Cav2.3 (Homo sapiens, UniProt Q15878); assay: whole-cell patch-clamp, […], […] Ca2+, HP -89 mV, […] Hz; conditions: read-out: % remaining ICa / 10 μM
T3 construct: gene CACNA1E; Cav2.3e α1 transiently expressed in tsA-201 cells; with auxiliary β3 and α2δ1 subunits

T1 sequence (Q01668 whole entry, canonical isoform): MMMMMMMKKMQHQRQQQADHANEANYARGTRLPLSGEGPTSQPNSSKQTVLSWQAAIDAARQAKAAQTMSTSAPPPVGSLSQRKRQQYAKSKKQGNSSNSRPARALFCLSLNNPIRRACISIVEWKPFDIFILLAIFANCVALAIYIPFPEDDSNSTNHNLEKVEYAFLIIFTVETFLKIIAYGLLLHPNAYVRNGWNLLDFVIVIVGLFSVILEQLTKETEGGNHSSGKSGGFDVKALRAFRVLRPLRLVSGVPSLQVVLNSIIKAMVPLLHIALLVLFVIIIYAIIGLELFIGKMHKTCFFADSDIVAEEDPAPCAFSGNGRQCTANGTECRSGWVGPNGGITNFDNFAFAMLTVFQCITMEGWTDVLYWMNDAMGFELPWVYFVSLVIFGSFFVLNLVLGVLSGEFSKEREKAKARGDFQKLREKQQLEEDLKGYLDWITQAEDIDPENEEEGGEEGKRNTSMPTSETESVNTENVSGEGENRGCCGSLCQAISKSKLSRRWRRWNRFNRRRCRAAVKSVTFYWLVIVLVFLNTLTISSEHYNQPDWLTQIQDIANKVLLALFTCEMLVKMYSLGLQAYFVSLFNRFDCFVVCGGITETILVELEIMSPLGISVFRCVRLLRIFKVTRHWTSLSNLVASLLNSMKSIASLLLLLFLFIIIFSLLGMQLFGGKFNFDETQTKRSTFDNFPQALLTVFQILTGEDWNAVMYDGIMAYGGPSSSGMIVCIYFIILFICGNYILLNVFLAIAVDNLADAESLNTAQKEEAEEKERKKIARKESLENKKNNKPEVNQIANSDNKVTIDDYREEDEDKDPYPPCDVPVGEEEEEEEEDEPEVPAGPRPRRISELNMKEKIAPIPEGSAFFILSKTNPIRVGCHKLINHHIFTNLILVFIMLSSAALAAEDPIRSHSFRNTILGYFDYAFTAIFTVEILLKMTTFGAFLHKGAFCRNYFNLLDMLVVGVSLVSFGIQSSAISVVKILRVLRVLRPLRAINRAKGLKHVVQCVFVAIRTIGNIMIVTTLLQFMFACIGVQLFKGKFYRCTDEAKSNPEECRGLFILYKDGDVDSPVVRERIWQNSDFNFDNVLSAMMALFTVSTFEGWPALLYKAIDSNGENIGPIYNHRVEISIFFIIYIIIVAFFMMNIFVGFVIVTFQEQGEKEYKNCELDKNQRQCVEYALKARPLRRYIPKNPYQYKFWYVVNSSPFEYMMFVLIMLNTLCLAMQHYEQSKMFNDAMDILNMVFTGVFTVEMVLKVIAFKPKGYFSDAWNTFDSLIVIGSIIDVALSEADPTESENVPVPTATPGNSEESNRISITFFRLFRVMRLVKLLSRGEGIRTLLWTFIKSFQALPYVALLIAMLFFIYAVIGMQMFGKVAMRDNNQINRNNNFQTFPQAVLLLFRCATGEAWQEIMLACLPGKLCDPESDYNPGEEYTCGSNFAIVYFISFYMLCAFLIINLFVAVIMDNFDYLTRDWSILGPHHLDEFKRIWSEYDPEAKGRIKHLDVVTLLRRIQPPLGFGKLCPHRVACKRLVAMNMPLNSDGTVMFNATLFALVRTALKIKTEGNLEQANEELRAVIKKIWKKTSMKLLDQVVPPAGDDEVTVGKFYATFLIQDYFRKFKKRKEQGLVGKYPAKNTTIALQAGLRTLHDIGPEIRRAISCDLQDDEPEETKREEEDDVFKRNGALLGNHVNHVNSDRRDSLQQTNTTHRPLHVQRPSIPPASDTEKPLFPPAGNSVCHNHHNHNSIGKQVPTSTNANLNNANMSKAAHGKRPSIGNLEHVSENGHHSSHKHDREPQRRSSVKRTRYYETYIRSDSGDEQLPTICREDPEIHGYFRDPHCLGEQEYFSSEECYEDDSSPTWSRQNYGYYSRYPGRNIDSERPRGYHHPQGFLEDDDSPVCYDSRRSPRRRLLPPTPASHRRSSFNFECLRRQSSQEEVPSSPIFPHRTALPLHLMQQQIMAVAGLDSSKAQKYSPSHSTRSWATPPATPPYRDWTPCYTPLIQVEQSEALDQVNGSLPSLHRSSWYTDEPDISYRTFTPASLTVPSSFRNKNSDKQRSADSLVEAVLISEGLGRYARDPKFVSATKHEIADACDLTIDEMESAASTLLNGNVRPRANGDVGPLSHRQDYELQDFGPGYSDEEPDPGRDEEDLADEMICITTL
T1 sequence (P54287 whole entry partner, canonical isoform): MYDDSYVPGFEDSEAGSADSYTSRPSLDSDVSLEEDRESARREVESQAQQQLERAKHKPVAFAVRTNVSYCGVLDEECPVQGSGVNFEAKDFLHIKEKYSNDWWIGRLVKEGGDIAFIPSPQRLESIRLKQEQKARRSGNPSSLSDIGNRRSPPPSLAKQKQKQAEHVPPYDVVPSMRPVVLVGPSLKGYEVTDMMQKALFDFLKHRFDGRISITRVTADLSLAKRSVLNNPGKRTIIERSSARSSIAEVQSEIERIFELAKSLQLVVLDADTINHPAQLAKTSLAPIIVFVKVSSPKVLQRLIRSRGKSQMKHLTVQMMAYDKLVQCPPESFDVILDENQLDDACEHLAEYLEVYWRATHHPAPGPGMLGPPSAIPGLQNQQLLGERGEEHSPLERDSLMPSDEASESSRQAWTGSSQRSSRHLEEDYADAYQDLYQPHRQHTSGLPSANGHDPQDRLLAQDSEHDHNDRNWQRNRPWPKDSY
T1 sequence (P13806 27-960 partner): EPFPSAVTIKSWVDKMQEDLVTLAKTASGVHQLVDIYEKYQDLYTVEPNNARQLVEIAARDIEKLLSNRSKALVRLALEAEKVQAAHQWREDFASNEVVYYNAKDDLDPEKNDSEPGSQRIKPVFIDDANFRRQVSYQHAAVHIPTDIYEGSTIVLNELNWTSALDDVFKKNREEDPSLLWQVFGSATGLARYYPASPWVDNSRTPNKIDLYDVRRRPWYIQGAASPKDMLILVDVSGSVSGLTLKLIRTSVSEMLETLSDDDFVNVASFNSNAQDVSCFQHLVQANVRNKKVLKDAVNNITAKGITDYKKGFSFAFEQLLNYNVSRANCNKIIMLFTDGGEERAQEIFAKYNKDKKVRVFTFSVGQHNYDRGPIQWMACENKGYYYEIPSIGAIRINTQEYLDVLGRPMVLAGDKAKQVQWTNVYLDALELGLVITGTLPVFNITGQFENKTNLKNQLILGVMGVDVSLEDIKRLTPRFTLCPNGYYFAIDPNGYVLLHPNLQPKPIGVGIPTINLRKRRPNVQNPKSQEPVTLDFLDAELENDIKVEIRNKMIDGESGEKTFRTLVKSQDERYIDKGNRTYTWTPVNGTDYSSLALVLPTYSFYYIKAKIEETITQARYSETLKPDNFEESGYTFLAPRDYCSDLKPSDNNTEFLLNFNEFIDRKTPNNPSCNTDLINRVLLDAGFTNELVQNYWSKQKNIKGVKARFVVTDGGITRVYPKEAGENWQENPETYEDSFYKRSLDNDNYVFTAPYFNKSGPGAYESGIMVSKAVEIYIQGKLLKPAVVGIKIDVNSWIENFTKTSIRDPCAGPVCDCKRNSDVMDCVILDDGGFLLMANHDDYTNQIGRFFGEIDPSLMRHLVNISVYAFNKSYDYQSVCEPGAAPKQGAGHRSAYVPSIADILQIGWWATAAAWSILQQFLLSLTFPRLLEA
T1 sequence (P13806 961-1106 partner): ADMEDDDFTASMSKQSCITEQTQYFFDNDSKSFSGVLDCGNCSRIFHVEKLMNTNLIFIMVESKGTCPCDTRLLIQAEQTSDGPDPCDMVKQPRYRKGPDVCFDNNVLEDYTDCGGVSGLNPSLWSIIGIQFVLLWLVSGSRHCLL

Compound | IC50 [1] | IC50 [2] | remaining activity at 10 µM [3]
COC(=O)C1=C(C)NC(C)=C(C(=O)OC(C)C)C1c1cccc2nonc12 (stereo not shown) [isradipine] | 0.134 µM |  | 
C=C[C@](C)(O)CC[C@@H]1[C@@]2(C)CCCC(C)(C)[C@@H]2CC[C@@]1(C)O [sclareol] | 16.3 µM | 12.5 µM | 36.7 ± 11.2%
